This assay concerns the target T1, Recombinant human DGAT2 protein (Homo sapiens, UniProt Q96PD7).
T1 construct: FLAG (DYKDDDDK); (N); made in house; host or cells: Sf-21 insect cells (BacPAK baculovirus system); used as a membrane preparation
T1 sequence (Q96PD7 1-388): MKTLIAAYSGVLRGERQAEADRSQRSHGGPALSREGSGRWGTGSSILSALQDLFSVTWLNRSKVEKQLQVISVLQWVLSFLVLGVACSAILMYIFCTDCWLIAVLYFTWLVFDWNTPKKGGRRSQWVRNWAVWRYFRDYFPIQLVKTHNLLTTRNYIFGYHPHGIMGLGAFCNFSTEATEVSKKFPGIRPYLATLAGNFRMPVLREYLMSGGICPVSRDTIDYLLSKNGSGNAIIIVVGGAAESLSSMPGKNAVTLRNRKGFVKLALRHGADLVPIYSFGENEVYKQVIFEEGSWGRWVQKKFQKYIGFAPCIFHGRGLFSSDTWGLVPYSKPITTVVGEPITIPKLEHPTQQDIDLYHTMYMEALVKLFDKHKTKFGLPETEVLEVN
In words: Measurement of inhibitory effect against DGAT2 enzyme activity (SPA, Phospholipid FlashPlate, [14C]-TG production). It is filed as biochemical. The settings on record: concentration inhibiting [14C]-labeled triacyl glycerol (TG) production by 50%; 2 μg DGAT2-membrane protein from Sf-21 cells, 37° C. In short, it runs like this: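 Membranes from Sf-21 cells expressing human DGAT2 (2 μg) preincubated 20 min at 37 °C with compound (3 nM–10 μM, 1% DMSO) in HEPES/MgCl2/BSA with 50 μM 1,2-dioleoyl glycerol, then 1 μM [14C]oleoyl-CoA for 15 min. [14C]-TG measured by SPA FlashPlate; inhibition as % of untreated control.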

Some results are limits rather than exact numbers.

Regarding `CCOc1ccccc1O[C@@H]1CCCN(c2cncc(NC(=O)CCc3cc(C)c(C(=O)O)c(C)c3)n2)C1` [Example 55, (R)-4-(3-((6-(3-(2-ethoxyphenoxy)piperidin-1-yl)pyrazin-2-yl)amino)-3-oxopropyl)-2,6-dimethylbenzoic acid], the IC50 (usually the concentration that inhibits the measured activity by half) came to 280 nM.

For the molecule `CCOc1ccccc1O[C@@H]1CCCN(c2cncc(NC(=O)CCC34CCC(C(=O)O)(CC3)CC4)n2)C1` [Example 117, (R)-4-(3-((6-(3-(2-ethoxyphenoxy)piperidin-1-yl)pyrazin-2-yl)amino)-3-oxopropyl)bicyclo[2.2.2]octane-1-carboxylic acid], the IC50 was 140 nM. `CCOc1ccccc1O[C@@H]1CCCN(c2cncc(NC(=O)c3cccc(OC)c3)n2)C1` [Example 8, (R)—N-(6-(3-(2-ethoxyphenoxy)piperidin-1-yl)pyrazin-2-yl)-3-methoxybenzamide]: the IC50 turned out to be 230 nM. For `CCOc1ccccc1O[C@@H]1CCCN(c2cncc(N3C(=O)CC(C)(C)C3=O)n2)C1` [Example 23, (R)-1-(6-(3-(2-ethoxyphenoxy)piperidin-1-yl)pyrazin-2-yl)-3,3-dimethylpyrrolidine-2,5-dione] the value was 7400 nM; for `C=C(CNc1ccc(CCC(=O)O)cc1)C(=O)Nc1cncc(N2CCC[C@@H](Oc3ccccc3OCC)C2)n1` [Example 74, (R)-3-(4-((2-((6-(3-(2-ethoxyphenoxy)piperidin-1-yl)pyrazin-2-yl)carbamoyl)allyl)amino)phenyl)propanoic acid], 1300 nM. As to `CCOc1ccccc1O[C@@H]1CCCN(c2cncc(NC(=O)Cc3cccc(C(=O)O)c3)n2)C1` [Example 33, (R)-3-(2-((6-(3-(2-ethoxyphenoxy)piperidin-1-yl)pyrazin-2-yl)amino)-2-oxoethyl)benzoic acid], the IC50 was found to be 4500 nM. On to `CCOc1ccccc1O[C@@H]1CCCN(c2cncc(NC(=O)c3ccc(Cl)cc3)n2)C1` [Example 7, (R)-4-chloro-N-(6-(3-(2-ethoxyphenoxy)piperidin-1-yl)pyrazin-2-yl)benzamide], for which the IC50 came out at 45 nM. On to `CCOc1ccccc1O[C@@H]1CCCN(c2cncc(NC(=O)Nc3ccc(CC(=O)O)cc3)n2)C1` [Example 67, (R)-2-(4-(3-(6-(3-(2-ethoxyphenoxy)piperidin-1-yl)pyrazin-2-yl)ureido)phenyl)acetic acid], for which the IC50 was 6100 nM.

For `CC(C)(C(=O)O)c1ccc(CCC(=O)Nc2cncc(N3CCC[C@@H](Oc4ccccc4OC4CCC4)C3)n2)cc1` [Example 98, (R)-2-(4-(3-((6-(3-(2-cyclobutoxyphenoxy)piperidin-1-yl)pyrazin-2-yl)amino)-3-oxopropyl)phenyl)-2-methylpropanoic acid], the IC50 was 81 nM.

As to `CCOc1ccccc1O[C@@H]1CCCN(c2cncc(NC(=O)C3CCN(S(=O)(=O)C(C)C)CC3)n2)C1` [Example 17, (R)—N-(6-(3-(2-ethoxyphenoxy)piperidin-1-yl)pyrazin-2-yl)-1-(isopropylsulfonyl)piperidine-4-carboxamide], the IC50 amounted to 10 nM. With `CCOc1ccccc1O[C@@H]1CCCN(c2cncc(NC(=O)C34CCC(C(=O)O)(CC3)CC4)n2)C1` [Example 21, (R)-4-((6-(3-(2-ethoxyphenoxy)piperidin-1-yl)pyrazin-2-yl)carbamoyl)bicyclo[2.2.2]octane-1-carboxylic acid], the IC50 was 4800 nM. Take `CCOc1ccccc1O[C@@H]1CCCN(c2cncc(NC(=O)C(C)Cc3ccc(C(=O)O)cc3)n2)C1` (stereo partly drawn) [Example 43, 4-(3-((6-((R)-3-(2-ethoxyphenoxy)piperidin-1-yl)pyrazin-2-yl)amino)-2-methyl-3-oxopropyl)benzoic acid]: the IC50 is 330 nM. For the molecule `CCOc1ccccc1O[C@@H]1CCCN(c2cncc(NC(=O)C(C)(C)c3ccccc3)n2)C1` [Example 31, (R)—N-(6-(3-(2-ethoxyphenoxy)piperidin-1-yl)pyrazin-2-yl)-2-methyl-2-phenylpropanamide], the IC50 turned out to be 180 nM. For `CCOc1ccccc1O[C@@H]1CCCN(c2cncc(NC(=O)Cc3ccc(OCCCC(=O)O)cc3)n2)C1` [Example 37, (R)-4-(4-(2-((6-(3-(2-ethoxyphenoxy)piperidin-1-yl)pyrazin-2-yl)amino)-2-oxoethyl)phenoxy)butanoic acid] the value was 460 nM; for `CCOc1ccccc1O[C@@H]1CCCN(c2cncc(NC(=O)c3cc(F)c(N4CCC(CC(=O)O)CC4)c(F)c3)n2)C1` [Example 58], 7500 nM; for `CCOc1ccccc1O[C@@H]1CCCN(c2cncc(NC(=O)C(C)(C)c3ccc(CC(C)(C)C(=O)O)cc3)n2)C1` [Example 110, (R)-3-(4-(1-((6-(3-(2-ethoxyphenoxy)piperidin-1-yl)pyrazin-2-yl)amino)-2-methyl-1-oxopropan-2-yl)phenyl)-2,2-dimethylpropanoic acid], 76 nM. For `CCOc1ccccc1O[C@@H]1CCCN(c2cncc(NC(=O)Cc3ccc(OCC(=O)O)cc3)n2)C1` [Example 99] the value was 2900 nM; for `CCOc1ccccc1O[C@@H]1CCCN(c2nccc(NC(=O)C(C)(C)c3ccc(CC(C)(C)C(=O)O)cc3)n2)C1` [Example 124, (R)-3-(4-(1-((2-(3-(2-ethoxyphenoxy)piperidin-1-yl)pyrimidin-4-yl)amino)-2-methyl-1-oxopropan-2-yl)phenyl)-2,2-dimethylpropanoic acid], 330 nM. Regarding `CCOc1ccccc1O[C@@H]1CCCN(c2cncc(NC(=O)C3CCN(C(=O)CCC(=O)O)CC3)n2)C1` [Example 83, (R)-4-(4-((6-(3-(2-ethoxyphenoxy)piperidin-1-yl)pyrazin-2-yl)carbamoyl)piperidin-1-yl)-4-oxobutanoic acid], the IC50 is above 10000 nM. With `CCOc1cccnc1O[C@@H]1CCCN(c2cncc(NC(=O)CCc3ccc(C(C)(C)C(=O)O)cc3)n2)C1` [Example 123, (R)-2-(4-(3-((6-(3-((3-ethoxypyridin-2-yl)oxy)piperidin-1-yl)pyrazin-2-yl)amino)-3-oxopropyl)phenyl)-2-methylpropanoic acid], the IC50 came to 35 nM. For `CCOc1ccccc1O[C@@H]1CCCN(c2cncc(NC(=O)CCc3cc(Cl)c(C(=O)O)c(Cl)c3)n2)C1` [Example 54, (R)-2,6-dichloro-4-(3-((6-(3-(2-ethoxyphenoxy)piperidin-1-yl)pyrazin-2-yl)amino)-3-oxopropyl)benzoic acid], the IC50 turned out to be 88 nM. Regarding `CCOc1ccccc1O[C@@H]1CCCN(c2cncc(NC(=O)C3CCN(CC(=O)O)CC3)n2)C1` [Example 84, (R)-2-(4-((6-(3-(2-ethoxyphenoxy)piperidin-1-yl)pyrazin-2-yl)carbamoyl)piperidin-1-yl)acetic acid], the IC50 was above 10000 nM.

For the origin of these results see patent publication US12637440B2, “Amide derivative useful as diacylglycerol acyltransferase 2 inhibitor, and use thereof” (LG CHEM, LTD., priority 2019, dated 2026).
